Literature values, collected in patent US20210346426A1, “COMPOSITION AND METHOD FOR THE TREATMENT OF COVID-19” (priority 2020, published 2021).

Experiments:
[1] = even at high concentration
[2] = after oral administration
blood coagulation [3] = details: intravenous injection
blood coagulation [4] = test system: blood coagulation

Compound	Acidity (pKa) pKa2	effect in contact with skin [1]	excreted unchanged in urine [2]	oxidation of the citrate ion [2]	coagulation times of the blood (blood coagulation [3])	effect on blood coagulation in vitro (blood coagulation [4])
O=C(O)CC(O)(CC(=O)O)C(=O)O [Citric acid, 2-Hydroxypropane-1,2,3-tricarboxylic acid]	pKa2 = 4.76	not injurious				
O=C(O)CC(O)(CC(=O)O)C(=O)O [citrate ion]			less than 1%	rapidly and almost completely oxidized	shortens	acts as an anticoagulant
O=C([O-])CC(O)(CC(=O)[O-])C(=O)[O-].[Na+].[Na+].[Na+] [sodium citrate, Sodium Citrate]						prevents the blood from coagulation
